Measurements taken from article PMC10353390, “Biological and Structural Analyses of New Potent Allosteric Inhibitors of HIV-1 Integrase” (Antimicrobial Agents and Chemotherapy, 2023).

Columns and labels:
HIV-1 IN = biological target: T1, HIV-1 IN (Human immunodeficiency virus type 1 group M subtype B, UniProt P12497); assay: HTRF IN multimerization assay; assay type: biochemical; conditions: mean ± SD
T1 construct: made in house
Source text: A key property of INLAIs is the ability to promote HIV-1 IN homo-multimerization ([39][–][42]). […] The maximal signal (plateau) in our IN aggregation assay corresponds to the highest HTRF signal increase under saturating INLAI concentration, relative to baseline level. Thus, MUT916, MUT884, MUT871, and MUT872 increased HIV-1 IN aggregation 3.7 to 4.4-fold, while BDM-2, BI-224436, and S-I-82 did so 5 to 6-fold (Table 1).

HXB2 HIV-1 strain = assay: Multiple-round infection assay in MT4 cells, HXB2; assay type: cell-based; conditions: Human immunodeficiency virus 1, HXB2; multiple-round infection, MT4 cells; mean ± SD, n > 5; read-out: EC50 HXB2
How it was run: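 Antiviral read-out was CellTiter-Glo luminescent viability of exponentially growing MT4 cells (10^6/mL). Cells were exposed to HIV-1 for 2 h at an MOI of 0.001 while compound was present at varying concentrations.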

NL4-3 HIV-1 strain = assay: Multiple-round infection assay in MT4 cells, NL4-3; assay type: cell-based; conditions: MT4 cells
[1] = Cytotoxicity assay in MT4 cells; assay type: cell-based; conditions: human, MT4 cells (proliferating human T-cell line), CellTiter-Glo
Source text: Growth inhibition was monitored in a proliferating human T-cell line (MT4) with different concentrations of compounds, using the CellTiter-Glo luminescent reagent (Promega), as previously described ([12]).

[2] = test system: VSV-G-pseudotyped NL4-3Δenv-luc; assay: microbe, parasite or virus in culture; assay type: cell-based, HIV-1
[3] = test system: recombinant NL4-3 viruses with polymorphisms at IN positions 124 and 125; assay: Multiple-round infection of MT4 cells with recombinant NL4-3 viruses polymorphic at IN positions 124 and 125; assay type: cell-based, HIV-1
How it was run: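 EC50 fold change relative to wild-type TT NL4-3 was derived from CellTiter-Glo viability of exponentially growing MT4 cells (10^6/mL). Cells were exposed for 2 h, with compounds, to NL4-3 clones bearing one of 15 IN 124/125 variants at MOI 0.001.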

[4] = test system: HIV-1 strains resistant to INSTIs, NRTIs, NNRTIs or PIs; assay type: cell-based
How it was run: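 Cell viability (CellTiter-Glo luminescence) served as read-out in MT4 cells at 10^6/mL, infected 2 h at MOI 0.001 in presence of graded compound concentrations. Viruses: resistance-mutation recombinants in NL4-3 backbone plus resistant clinical isolates.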

NL4-3 HIV-1 clone = assay: Combination antiviral activity assay (MacSynergy II) in NL4-3-infected MT4 cells; assay type: cell-based
Source text: To this end, we evaluated the activity of BDM-2 in the presence of approved antiretroviral drugs against NL4-3 HIV-1 clone replicating on MT4 cells. Examples of MacSynergy plots obtained for the combinations of BDM-2 with the protease inhibitor lopinavir (LPV) or the INSTI EVG are shown in Fig. 3A and B, respectively. The results indicated no antagonism of ascending concentrations of BDM-2 with the antiviral activity of LPV or EVG and vice versa. Next, we extended these analyses to a panel of 16 FDA-approved antiretroviral drugs, including 3 protease inhibitors, 6 NRTIs, 4 NNRTIs, and 3 INSTIs.
BDM-2, as lead compound representative of the series, was used in these experiments. Combination studies were performed in MT4 cells infected with NL4-3, as previously described ([3]). Multiple concentrations of BDM-2 were tested in checkerboard pattern in the presence and absence of dilutions of 16 representative approved anti-HIV drugs of different classes. Compound combinations were analyzed by calculations to quantify deviation from additivity at the 50% level. Data were analyzed as described by Prichard and Shipman by using the MacSynergy II program ([54]). Synergy volumes in the range of −25 to +25 define additivity; −50 minor antagonism, +50 minor synergy, and up to 100 and >100 moderate and strong synergy, respectively. Combinations of RBV with AZT or ddI were used as controls for antagonism and synergy, respectively.

[5] = parameters: method as in ref 20 = [20]; 20 Single ascending dose trial investigating safety, tolerability and pharmacokinetics of BDM-2 in healthy male subjects . https://clinicaltrials.gov/ct2/show/NCT03634085 . Accessed 17 July 2020 .; conditions: single ascending dose, healthy male subjects; cited from earlier work
[6] = biological target: CCD of HIV-1 IN and IBD of LEDGF/p75 (Human immunodeficiency virus type 1 group M subtype B, UniProt P12497); assay: biochemical
Protocol: The INLAIs were tested for the ability to inhibit the HIV-1 IN-LEDGF/p75 interaction in a homogeneous time-resolved fluorescence (HTRF) assay. Our assays used either full-length IN and LEDGF/p75 proteins or their respective minimally sufficient interaction domains: the CCD of HIV-1 IN and the IBD of LEDGF/p75 (Table 1).
HTRF-based CCD-IBD interaction, IN-LEDGF/p75 interaction and IN multimerization assays were performed as described previously ([12]).

[7] = INSTI-resistant, NL4-3 background
[8] = INSTI-resistant, primary patient-derived strain

For `Cc1ccc(C2CC2)c(-c2ccc3c(c2)CCCO3)c1[C@H](OC(C)(C)C)C(=O)O` [BDM-2], the AC50 (HIV-1 IN; concentration for 50% maximum activation of multimerization) was 0.02 ± 0.011 µM, the “IN multimerization Plateau” value (HIV-1 IN; maximum multimerization reached versus baseline) was 560 ± 150% and the EC50 (HXB2 HIV-1 strain) was 0.0045 ± 0.0012 µM. For the same compound, the EC90 (NL4-3 HIV-1 strain; Human immunodeficiency virus 1, NL43, multiple-round infection, from dose response curves, read-out: EC90 NL4-3) was 0.013 ± 0.0051 µM, the EC50 (NL4-3 HIV-1 strain; Human immunodeficiency virus 1, NL43, multiple-round infection, mean ± SD, n > 5, read-out: EC50 NL4-3) was 0.0087 ± 0.0028 µM and the “Selectivity index CC50/EC50 NL4-3” value (NL4-3 HIV-1 strain) was 7,931. For the same compound, the CC50 [1] was 69 ± 8 µM, the “EC50 ratio (single/multiple-round infection)” value [2] was 161 and the EC50 ([2]; Human immunodeficiency virus 1, NL43, MT4, read-out: EC50 in single-round infection) was 1.4 ± 0.3 µM. The “Fold change in EC50 relative to parental NL4-3, AA” value ([3]; recombinant NL4-3, IN 124/125 AA) was 1, the “Fold change in EC50 relative to parental NL4-3, AM” value ([3]; recombinant NL4-3, IN 124/125 AM) was 0.4 and the “Fold change in EC50 relative to parental NL4-3, AT” value ([3]; recombinant NL4-3, IN 124/125 AT) was 1. The “Fold change in EC50 relative to parental NL4-3, AV” value ([3]; recombinant NL4-3, IN 124/125 AV) was 2, the “Fold change in EC50 relative to parental NL4-3, GA” value ([3]; recombinant NL4-3, IN 124/125 GA) was 1 and the “Fold change in EC50 relative to parental NL4-3, GT” value ([3]; recombinant NL4-3, IN 124/125 GT) was 1. The “Fold change in EC50 relative to parental NL4-3, NA” value ([3]; recombinant NL4-3, IN 124/125 NA) was 1, the “Fold change in EC50 relative to parental NL4-3, NT” value ([3]; recombinant NL4-3, IN 124/125 NT) was 1 and the “Fold change in EC50 relative to parental NL4-3, NV” value ([3]; recombinant NL4-3, IN 124/125 NV) was 1. The “Fold change in EC50 relative to parental NL4-3, SA” value ([3]; recombinant NL4-3, IN 124/125 SA) was 1, the “Fold change in EC50 relative to parental NL4-3, ST” value ([3]; recombinant NL4-3, IN 124/125 ST) was 1 and the “Fold change in EC50 relative to parental NL4-3, TA” value ([3]; recombinant NL4-3, IN 124/125 TA) was 1. The “Fold change in EC50 relative to parental NL4-3, TM” value ([3]; recombinant NL4-3, IN 124/125 TM) was 0.3, the “Fold change in EC50 relative to parental NL4-3, TV” value ([3]; recombinant NL4-3, IN 124/125 TV) was 1 and the “Fold change in EC50 relative to NL4-3, E92Q” value [4, 7] was 1. For the same compound, the “Fold change in EC50 relative to NL4-3, G140S” value [4, 7] was 1, the “Fold change in EC50 relative to NL4-3, G140S/Q148H” value [4, 7] was 1 and the “Fold change in EC50 relative to NL4-3, N155H” value [4, 7] was 1. For the same compound, the “Fold change in EC50 relative to NL4-3, Q148H” value [4, 7] was 1, the “Fold change in EC50 relative to NL4-3, Y143R” value [4, 7] was 1 and the “Fold change in EC50 relative to NL4-3, E92Q/N155H (pat.)” value [4, 8] was 1. For the same compound, the “Fold change in EC50 relative to NL4-3, G140S/Q148H (pat.)” value [4, 8] was 1, the “Fold change in EC50 relative to NL4-3, T97A/N155H (pat.)” value [4, 8] was 1 and the “Fold change in EC50 relative to NL4-3, NLAY351717” value ([4]; NRTI-resistant clone) was 2. The “Fold change in EC50 relative to NL4-3, NLAY351753” value ([4]; NRTI/NNRTI-resistant clone) was 1, the “Fold change in EC50 relative to NL4-3, K103N/Y181C” value ([4]; NRTI/NNRTIs group, NL4-3 background) was 1 and the “Fold change in EC50 relative to NL4-3, ARP-4595” value ([4]; PI-resistant virus) was 1. For the same compound, the “Fold change in EC50 relative to NL4-3, ARP-4596” value ([4]; PI-resistant virus) was 0.5, the “Fold change in EC50 relative to NL4-3, ARP-11801” value ([4]; PI-resistant virus) was 1 and the “Fold change in EC50 relative to NL4-3, ARP-11803” value ([4]; PI-resistant virus) was 1. The “Fold change in EC50 relative to NL4-3, ARP-11807” value ([4]; PI-resistant virus) was 1, the “Fold change in EC50 relative to NL4-3, ARP-11808” value ([4]; PI-resistant virus) was 1 and the “interaction with a panel of 16 FDA-approved antiretroviral drugs” value (NL4-3 HIV-1 clone; 3 protease inhibitors, 6 NRTIs, 4 NNRTIs, 3 INSTIs, MacSynergy) was “no antagonism”. The “interaction with lopinavir (LPV)” value (NL4-3 HIV-1 clone; MacSynergy synergy volume) was “strong synergy (up to 100 and >100 moderate and strong synergy, respectively)”, the “interaction with some of the remaining drugs, including the INSTIs” value (NL4-3 HIV-1 clone; MacSynergy synergy volume) was “moderate synergy (up to 100 and >100 moderate and strong synergy, respectively)” and the “safety in phase I clinical trial” value [5] was “without any serious adverse event and few mild adverse events”. It also gave an IC50 [6] of 0.15 ± 0.03 µM.
